Measured values reported in patent US8197860B2, “Method for enhancing nutrient absorption with astragalosides” (Nuliv Holding Inc., priority 2005, dated 2012).

Legend:
Type in all cases: cell-based, human
Caco2 cells [1] = test: Glucose uptake assay; parameters: key to * (regulatory effect on glucose uptake): ↑: the arrows that point up represent the enhancing effect on the glucose uptake; settings: for Regulatory effects on the glucose uptake of the Caco2 cells: Table 2 summary; for Uptake rate (glucose): 48 hours, 25 mM glucose
Protocol: (§1) To evaluate the effect of the isolated astragaloside compound on the uptake of nutrient substances across the intestinal lumen, Caco-2 cells were grown on permeable filter as an experimental model. Caco2 cells originate from human colonic adenocarcinoma and spontaneously differentiate into an enterocyte-like phenotype after two weeks. The Caco-2 cell line, derived from a human colorectal carcinoma, has been used as an in vitro model system for studying drug absorption in gastrointestinal tract. These cells form monolayers with well-developed tight-junctions, and have been evaluated in details as an in vitro model to study both transcellular transport of nutrients and drugs in intestinal lumen.
(§2) Caco-2 cells were obtained from the ATCC (American Type Culture Collection). The cells were maintained in Dulbecco's modified Eagle medium (DMEM) containing 4.5 g/L glucose and 25 mM Hepes, supplemented with 10% fetal calf serum, 100 U/mL penicillin G and […]. The medium was changed every second day. The cells were routinely checked for Mycoplasma in monthly intervals. Caco-2 cells were cultured on semi-permeable membranes to differentiate into a highly functionalized epithelial barrier with remarkable morphological and biochemical similarity to the small intestinal columnar epithelium. The Caco-2 cell monolayers could therefore be used to study the membrane transport properties of many compounds. To trypsinize the cells, the culture dish was washed once with phosphate-buffered saline (PBS) followed by adding trypsine-EDTA for 10 minutes. The trypsinized cells were separated and filtered into single cells using a 35-μm strainer cap (Falcon 2235) before being seeded for further experiments.
(§3) Caco-2 cells (5×10^4) were seeded in a 48-well plate and maintained in culture medium (DMEM with 10% FBS, 1% nonessential amino acids, L-glutamine, penicillin G (100 U/mL), streptomycin (10 μg/mL), and amphotericin B (2.5 μg/mL) in a 37° C. incubator for 10 days for the cells to differentiate. The culture medium was changed once every two days. The cells were then washed with PBS before replenishing with the culture medium containing 5% FBS and various astragalosides at the indicated concentrations (0.01, 0.1 and 1 μM) for 48 hours. The Caco2 cells were washed out of remaining glucose with PBS and replaced in the glucose buffer (80 mM NaCl, 100 mM mannitol, 20 mM Tris-HCl, pH 7.4, 3 mM K2HPO4, 1 mM CaCl2, 1 mg/mL BSA) for 1 hour. Glucose uptake was initiated by replacing the glucose buffer with 0.2 ml of glucose buffer containing 2 μCi/mL of ^14C-glucose and unlabeled cold glucose to give a final glucose concentration of 25 mM. Glucose uptake was stopped by removing the glucose buffer and washing with PBS at designated time intervals. The cells were lysed in 0.2 mL of 0.2 N NaOH, and 20 μL of the cell lysate were transferred to the filter-bottomed UniFilter plates (Perkin-Elmer, Wellesley, Mass., USA) and dried in a vacuum oven at 37° C. The bottom of the UniFilter plate was sealed and 25 μL of the counting solution were added into each well. Adhesive plate sealers were used in place of the lids and radioactivity of each sample was counted using the microplate liquid scintillation counter (TopCount, Packard NXT, Packard BioScience Company, Meriden, Conn., USA). The amount of glucose accumulated in the cells was calculated and normalized to protein concentration, and uptake rate was expressed as nanomoles of glucose per minutes per milligram of cell protein (nmol/min/mg). Protein concentration was determined by a standard Bicinchoninic acid (BCA) protein assay. Nonspecific glucose uptake was measured by adding 2 μCi of L-[^14C]-glucose and subtracting from each determination to obtain specific glucose uptake.

Caco-2 cell monolayer [2] = test: Arginine absorption assay (transport across Caco-2 cell monolayer); parameters: key to * (regulatory effect on arginine transport): ↑: the arrows that point up represent the enhancing effect on the arginine transport; settings: for Regulatory effects on the arginine transport across the Caco2 cell monolayer: Table 3 summary; for Transport rate (arginine): 10 mM L-arginine apical
Protocol: as §1, §2
(§4) In measuring transport of arginine across the Caco-2 cell monolayer, both sides of the transwells were washed with arginine incubation buffer consisting of: 137 mM NaCl, 10 mM Hepes, 0.3 mM NaH2PO4, 0.3 mM K2HPO4, 5.4 mM KCl, 2.8 mM CaCl2, 1 mM MgSO4, 10 mM glucose, adjusted to pH 7.4. Then, the cell layer was preincubated in the incubation buffer at 37° C. for 1 h. The volume of incubation buffer was 0.2 mL and 0.9 mL in the apical and basolateral chambers, respectively. The cells were replaced with fresh incubation medium in both chambers prior to the transport experiment. The transport experiment was initiated by replacing the incubation solution on the apical side with solution containing 10 mM of L-arginine in which 0.125 μCi/mL of L-[^3H]-arginine was included. At designated time intervals, 10 μL-solution samples were removed from the basolateral side and radioactivity of each sample was counted using a microplate liquid scintillation counter (TopCount, Packard NXT). During the experiment, when a 10 μL-solution sample was removed from the basolateral side every time, 10 μL buffer was supplemented to keep the volume constant. The uptake of [^3H]-mannitol was used to correct for nonspecific transport of molecules across the monolayer membrane. Results were expressed as the nanomoles of arginine transport across the Caco-2 cell monolayers with respect to time in minutes (nmol/min).

Caco-2 cell monolayer [3] = test: Tryptophan absorption assay (transport across Caco-2 cell monolayer); parameters: key to * (regulatory effect on tryptophan transport): ↑: the arrows that point up represent the enhancing effect on the tryptophan transport; settings: for Regulatory effects on the tryptophan transport across the Caco2 cell monolayer: Table 4 summary
Protocol: as §1, §2, §4
The experimental procedures similar to those in Example 2 were used for measuring the uptake of tryptophan molecules across the Caco-2 membrane, except using a tryptophan incubation buffer consisting of 137 mM choline chloride, 10 mM Hepes, 0.6 mM KH2PO4, 5.4 mM KCl, 2.8 mM CaCl2, 1 mM MgSO4, and 10 mM glucose, and having its pH adjusted to 7.4. Results were expressed as the nanomoles of tryptophan transport across the Caco-2 cell monolayers with respect to time in minutes (nmol/min).

Caco2 cells [4] = test: Folate uptake assay; parameters: key to * (regulatory effect on folate uptake): ↑: the arrows that point up represent the enhancing effect on folate uptake; settings: for * (regulatory effect on folate uptake) / Percentage (folate uptake vs own control) / Uptake rate (folate): compound 0.1 μM; for Uptake rate (folate): 2 days, 5 μM folate, pH 6.0
Protocol: as §1, §2, §3
The Caco2 cells were subjected to folate uptake test in a manner similar to that described in the glucose uptake assay in Example 1 above. […]

SMILES | Regulatory effects on the glucose uptake of the Caco2 cells (Caco2 cells [1]) | * (regulatory effect on glucose uptake) (Caco2 cells [1]; compound 0.01 μM) | Percentage (glucose uptake, control = 100) (Caco2 cells [1]; compound 0.01 μM) | Uptake rate (glucose) (Caco2 cells [1]; compound 0.01 μM) | * (regulatory effect on glucose uptake) (Caco2 cells [1]; compound 0.1 μM) | Percentage (glucose uptake, control = 100) (Caco2 cells [1]; compound 0.1 μM) | Uptake rate (glucose) (Caco2 cells [1]; compound 0.1 μM) | Percentage (glucose uptake, control = 100) (Caco2 cells [1]; compound 1 μM) | Uptake rate (glucose) (Caco2 cells [1]; compound 1 μM) | Regulatory effects on the arginine transport across the Caco2 cell monolayer (Caco-2 cell monolayer [2]) | * (regulatory effect on arginine transport) (Caco-2 cell monolayer [2]; compound 0.01 μM) | Percentage (arginine transport, control = 100) (Caco-2 cell monolayer [2]; compound 0.01 μM) | Transport rate (arginine) (Caco-2 cell monolayer [2]; compound 0.01 μM) | * (regulatory effect on arginine transport) (Caco-2 cell monolayer [2]; compound 0.1 μM) | Percentage (arginine transport, control = 100) (Caco-2 cell monolayer [2]; compound 0.1 μM) | Transport rate (arginine) (Caco-2 cell monolayer [2]; compound 0.1 μM) | Regulatory effects on the tryptophan transport across the Caco2 cell monolayer (Caco-2 cell monolayer [3]) | * (regulatory effect on tryptophan transport) (Caco-2 cell monolayer [3]; compound 0.01 μM) | Percentage (tryptophan transport, control = 100) (Caco-2 cell monolayer [3]; compound 0.01 μM) | Transport rate (tryptophan) (Caco-2 cell monolayer [3]; compound 0.01 μM) | also measured
CC(=O)OC1C(O)COC(OC2CCC34CC35CCC3(C)C(C6(C)CCC(C(C)(C)O)O6)C(O)CC3(C)C5CC(OC3OC(CO)C(O)C(O)C3O)C4C2(C)C)C1OC(C)=O (centres unmarked) [AS1, astragaloside I] | had regulatory effects on the glucose uptake | ↑ | 146.75% | 9.3510 ± 1.1370 nmol/mg/min | ↑ | 122.82% | 7.8260 ± 1.7510 nmol/mg/min | 98.52% | 6.2780 ± 1.9930 nmol/mg/min | had regulatory effects on the arginine transport | ↑ | 151.91% | 16.2324 ± 0.7215 nmol/min | ↑ | 147.21% | 15.7300 ± 1.1250 nmol/min | had regulatory effects on the tryptophan transport | ↑ | 248.49% | 22.220 ± 0.8695 nmol/min | * (regulatory effect on arginine transport) (Caco-2 cell monolayer [2]; compound 0.001 μM): ↑; Percentage (arginine transport, control = 100) (Caco-2 cell monolayer [2]; compound 0.001 μM): 133.37%; Transport rate (arginine) (Caco-2 cell monolayer [2]; compound 0.001 μM): 14.2554 ± 0.5851 nmol/min; Arginine transport rate (Caco-2 cell monolayer [2]; concentration from 0.001 μM to 0.1 μM): increased; * (regulatory effect on tryptophan transport) (Caco-2 cell monolayer [3]; compound 0.1 μM): ↑; Percentage (tryptophan transport, control = 100) (Caco-2 cell monolayer [3]; compound 0.1 μM): 258.67%; Transport rate (tryptophan) (Caco-2 cell monolayer [3]; compound 0.1 μM): 23.130 ± 1.3120 nmol/min; * (regulatory effect on tryptophan transport) (Caco-2 cell monolayer [3]; compound 1 μM): ↑; Percentage (tryptophan transport, control = 100) (Caco-2 cell monolayer [3]; compound 1 μM): 178.93%; Transport rate (tryptophan) (Caco-2 cell monolayer [3]; compound 1 μM): 16.000 ± 1.3190 nmol/min; Tryptophan transport rate (Caco-2 cell monolayer [3]; concentration from 0.01 μM to 0.1 mM): increased; Folate uptake versus control group (Caco2 cells [4]; 0.1 μM, FIG. 4): increased folate uptake; * (regulatory effect on folate uptake) (Caco2 cells [4]): ↑; Percentage (folate uptake vs own control) (Caco2 cells [4]): 150.00%; Uptake rate (folate) (Caco2 cells [4]): 79.710 ± 3.0410 pmol/mg/min
CC(C)(O)[C@@H]1CC[C@](C)([C@H]2[C@@H](O)C[C@@]3(C)[C@@H]4C[C@H](O[C@@H]5O[C@H](CO)[C@@H](O)[C@H](O)[C@H]5O)[C@H]5C(C)(C)[C@@H](O[C@@H]6OC[C@@H](O)[C@H](O)[C@H]6O)CC[C@@]56C[C@@]46CC[C@]23C)O1 [AS4, astragaloside IV] | had regulatory effects on the glucose uptake | ↑ | 183.15% | 11.670 ± 2.5800 nmol/mg/min | ↑ | 164.16% | 10.460 ± 2.6690 nmol/mg/min | 141.27% | 9.0020 ± 1.8300 nmol/mg/min | had regulatory effects on the arginine transport | ↑ | 156.52% | 16.7245 ± 0.2890 nmol/min | ↑ | 172.73% | 18.4575 ± 0.5955 nmol/min | had regulatory effects on the tryptophan transport | ↑ | 113.29% | 10.130 ± 0.7025 nmol/min | Glucose uptake rate versus control group (Caco2 cells [1]; FIG. 1, selected concentrations): much higher glucose uptake rate than the control group; * (regulatory effect on glucose uptake) (Caco2 cells [1]; compound 1 μM): ↑; * (regulatory effect on arginine transport) (Caco-2 cell monolayer [2]; compound 1 μM): ↑; Percentage (arginine transport, control = 100) (Caco-2 cell monolayer [2]; compound 1 μM): 161.19%; Transport rate (arginine) (Caco-2 cell monolayer [2]; compound 1 μM): 17.2241 ± 0.3759 nmol/min; Arginine transport rate (Caco-2 cell monolayer [2]; concentration from 0.01 μM to 1 μM): increased; * (regulatory effect on tryptophan transport) (Caco-2 cell monolayer [3]; compound 0.1 μM): ↑; Percentage (tryptophan transport, control = 100) (Caco-2 cell monolayer [3]; compound 0.1 μM): 142.36%; Transport rate (tryptophan) (Caco-2 cell monolayer [3]; compound 0.1 μM): 12.730 ± 0.4470 nmol/min; * (regulatory effect on tryptophan transport) (Caco-2 cell monolayer [3]; compound 1 μM): ↑; Percentage (tryptophan transport, control = 100) (Caco-2 cell monolayer [3]; compound 1 μM): 108.07%; Transport rate (tryptophan) (Caco-2 cell monolayer [3]; compound 1 μM): 9.6640 ± 0.2770 nmol/min; Tryptophan transport rate (Caco-2 cell monolayer [3]; concentration from 0.01 μM to 1 mM): increased; * (regulatory effect on folate uptake) (Caco2 cells [4]): ↑; Percentage (folate uptake vs own control) (Caco2 cells [4]): 135.12%; Uptake rate (folate) (Caco2 cells [4]): 75.710 ± 5.2390 pmol/mg/min
